# Measurements: patent US8969378B2, “Inhibitor of the differentiation of T cells into Th1 cells” (Kowa Co., Ltd., priority 2007, dated 2015)
# Columns and labels:
# [1] = test system: human T cells; test: Differentiation of peripheral blood T cells into Th1 / Th2 cells (IL-12, anti-CD3/CD28, flow cytometry); type: cell-based; conditions: FIG. 2; for concentration exhibiting the effect of inhibiting differentiation of T cells into Th1 cells / concentration exhibiting the effect of promoting differentiation of T cells into Th2 cells: human peripheral blood cells, IL-12 100 ng/mL, four days; for concentration exhibiting the effect of inhibiting differentiation of T cells into Th1 cells: CD4-positive IFN-γ-positive cells; for concentration exhibiting the effect of promoting differentiation of T cells into Th2 cells: CD4-positive IL-4-positive cells
# Method: Peripheral blood (10 mL) was collected from six healthy adults in heparin, and […] were isolated through the Ficol-Hypaque method (i.e., a customary method). The thus-isolated cells were diluted to 1×10^6/mL and then inoculated into a 24-well culture plate coated with CD3 and CD28 antibodies (Falcon), followed by culturing for four days in the presence of IL-12 (100 ng/mL), to thereby induce differentiation of T cells into Th1 cells. Atorvastatin or pitavastatin (0.01 to 10 μM) was added at the time of initiation of culturing, and the effect of each drug on differentiation of T cells into Th1 cells was examined. After completion of culturing, cells were washed thrice with PBS, and cytokines (IFN-γ and IL-4) in the cells and CD4 on the surfaces of the cells were stained in a conventional manner. The ratio of Th1 (CD4-positive, IFN-γ-positive cells) or Th2 (CD4-positive, IL-4-positive cells) to all the CD4-positive T cells was determined through flow cytometry.
# Specifically, lymphocytes were stimulated with anti-CD3 antibody and anti-CD28 antibody, and the amounts of INF-γ (Th1 cytokine) and IL-4 (Th2 cytokine) in the cells were determined through flow cytometry, to thereby compare pitavastatin with atorvastatin in terms of the effect of inhibiting differentiation of peripheral blood T cells into Th1 cells, and the effect of promoting differentiation of peripheral blood T cells into Th2 cells.
# [2] = test system: Th1 cells derived from spleen cells of MOG-immunized mice; test: Inhibition of activation of Th1 cells: IFN-γ production by MOG-stimulated spleen cells of EAE mice (ELISA); type: cell-based, C57BL/6 mice; conditions: FIG. 1; for concentration that significantly reduced the amount of IFN-γ produced by Th1 cells (inhibited activation of Th1 cells): spleen cells of MOG-immunized EAE mice, day 14, stimulated with MOG, IFN-γ in supernatant by ELISA
# Method: Five C57BL/6 mice were immunized with myelin oligodendrocyte glycoprotein (MOG), and mice with experimental autoimmune encephalomyelitis ([…] model of multiple sclerosis) were prepared in a conventional manner. On day 14 after immunization, spleen cells were collected from each mouse and cultured in a 24-well culture plate coated with CD3 and CD28 antibodies, and then stimulated with MOG in the presence of pitavastatin or atorvastatin, to thereby activate Th1 cells. The Th1 cytokine (IFN-γ) concentration of the supernatant of the resultant cell culture was determined through ELISA.
SMILES,concentration exhibiting the effect of inhibiting differentiation of T cells into Th1 cells [1],concentration exhibiting the effect of promoting differentiation of T cells into Th2 cells [1],Th1/Th2 ratio improving effect relative to atorvastatin ([1]; versus atorvastatin),effect of promoting differentiation of T cells into Th2 cells relative to atorvastatin ([1]; versus atorvastatin),concentration that significantly reduced the amount of IFN-γ produced by Th1 cells (inhibited activation of Th1 cells) [2],"effect of inhibiting activation of Th1 cells relative to atorvastatin ([2]; versus atorvastatin, from amount of IFN-γ produced)"
"O=C(O)C[C@H](O)C[C@H](O)/C=C/c1c(C2CC2)nc2ccccc2c1-c1ccc(F)cc1 [pitavastatin, (3R,5S,6E)-7-[2-cyclopropyl-4-(4-fluorophenyl)-3-quinolyl]-3,5-dihydroxy-6-heptenoic acid]",1 µM,1 µM,10 fold,10 fold,≥ 10 µM,2.5 fold
CC(C)c1c(C(=O)Nc2ccccc2)c(-c2ccccc2)c(-c2ccc(F)cc2)n1CC[C@@H](O)C[C@@H](O)CC(=O)O [atorvastatin],at least 10 μM,at least 10 μM,–,–,25 µM,–
